Experimental data reported in US20050281867A1, “Nitric oxide inducing agents” (priority 2003, published 2005).

How the values were obtained:
wide variety of cancers = experiment: Topical treatment of cancer patients, overall statements; type: in vivo, human
Source text: A total of 8,125 patients with different kinds of cancer participated in this study. These patients were divided into two groups. Blood samples were collected from 80 patients designated as Group I. These patients included 45 males between 20-65 years old, and 35 females between 25-55 years old. These patients were newly diagnosed patients with cancer who at the time of blood donation had not taken any medicine at least for 14 days and had not yet undergone any treatment of cancer including radiation or chemotherapy but opted for surgery. None of the patients had overt diabetes mellitus, systemic hypertension or suffered coronary artery disease at presentation. None of these patients had any other diagnosed life threatening condition.
Two categories of patients were included in Group II. The first category included 6,705 patients who had previously undergone all available cancer treatments including surgery, radiation and chemotherapy. At the time of participation in the study these patients had exhausted all therapeutic options and were under the care of private physicians and family members in their home. […] At the time of the participation in the study all patients, in the Group II in the second category had stopped taking treatments for cancer, such as chemotherapy and radiation, for at least 2 months. The diagnostic procedures and condition of the patients at presentation are described in Table 1. All institutionalized patients in group II were excluded from the study to avoid ambiguity. As in the case of Group I the patients with any other life threatening conditions or severe infection were also excluded from this group.
A control group of 150 patients were selected randomly from the Group II patients. […] Since the effect of the agents of the instant invention on the neutralization of IANOS antibody in vivo in cancer patients (responders) could be noticed by immunoblot technique (end-point) in 7 days, the patients in the placebo group received the vehicle for 7 days; the neutralization of the antibody and nitric oxide synthesis were determined. […]

[1] = tested on: insulin-activated nitric oxide synthase (IANOS); experiment: Assay of IANOS of human erythrocytes; type: biochemical
Protocol: Both biologic and non-biologic materials for were screened for their ability to activate human erythrocytes IANOS. […] The protein was purified to homogeneity from an aqueous extract (pH 7.4 buffer) by the combination of DEAE cellulose chromatography and SEPHADEX® gel filtration techniques.
Insulin-activated nitric oxide synthase (IANOS) activity of the erythrocyte suspension was carried out by determining the conversion of oxyhemoglobin to methemoglobin using standard methods. Purification of insulin activated nitric oxide synthase (from human erythrocyte membranes) was carried out by DEAE cellulose chromatography.

[2] = tested on: maspin and alpha interferon-a; experiment: Maspin and alpha interferon in breast cancer tissue and neutrophils of treated subjects; type: in vivo, human; conditions: malignant breast cancer tissue and non-malignant neutrophils in breast cancer
Source text: Expression of maspin, a serine protease inhibitor (serpin) known to be a potent anticancer protein, is severely impaired in breast cancer tissue. […] Similarly, production of alpha interferon-a, a widely used anticancer cytokine noted for its antiproliferative and anticancer property, is severely impaired in both malignant breast cancer tissue and non-malignant neutrophils in breast cancer. As with maspin, increases in nitric oxide levels increased production of alpha-interferon to normal ranges. By administering an agent of the instant invention, the auto immunity that is T-cell induced is improved through the neutrophils.

nitric oxide = experiment: Nitric oxide production / systemic NO levels in treated patients; type: in vivo, human
Protocol: Moreover, it was observed that a few patients who received treatment with an agent of the instant invention began to develop resistance due to down-regulation of the insulin receptor. This effect was reversed by co-administering low dose aspirin (15 mg) with the agent. Upon co-administration, the production of nitric oxide returned to normal within 30 minutes of treatment. While the instant agents work through the insulin receptor, aspirin appeared to be insulin-independent and was nitric oxide mediated. Accordingly, one embodiment of the instant methods is the co-administration, i.e., simultaneous or sequential, of low dose aspirin (e.g., ranging from 5-100 mg) with an agent of the instant invention. […] Expression of maspin, a serine protease inhibitor (serpin) known to be a potent anticancer protein, is severely impaired in breast cancer tissue. […] Similarly, production of alpha interferon-a, a widely used anticancer cytokine noted for its antiproliferative and anticancer property, is severely impaired in both malignant breast cancer tissue and non-malignant neutrophils in breast cancer. As with maspin, increases in nitric oxide levels increased production of alpha-interferon to normal ranges. By administering an agent of the instant invention, the auto immunity that is T-cell induced is improved through the neutrophils.

Molecule	cancers in which particularly effective (wide variety of cancers; non-Hodgkin's lymphoma, brain cancer, breast cancer with mastectomy, lung cancer (non-small cell))	comparative effect of both agents (wide variety of cancers; pancreatic cancer and bone cancer)	effect against a wide variety of cancers (wide variety of cancers; topical, cancer patients, as shown in Table 1)	activation of erythrocyte IANOS [1]	alpha interferon-a [2]	maspin [2]	systemic NO levels (nitric oxide; after administration)	time until production of nitric oxide returned to normal (nitric oxide; low dose aspirin (15 mg) co-administered with the agent, patients who developed resistance (insulin receptor down-regulation)) [min]
insulin	particularly effective	equally effective	effective	potent activator	increase	increase	increase	–
CC(=O)Oc1ccccc1C(=O)O [aspirin, reference compound]	–	–	–	–	–	–	–	≤ 30
